Measured values as given in patent US20230372293A1, “SIRT1 INHIBITOR OR ANTAGONIST FOR USE IN PREVENTING AND/OR TREATING AN HPV INDUCED TUMOUR” (UNIVERSITA' DEGLI STUDI DEL PIEMONTE ORIENTALE "A. AVOGADRO", priority 2020, published 2023).
Where a SMILES comes first, the peptide text is derived from it. The star is where a group is joined. Cbz = O=C(OCc1ccccc1)*

Legend:
[1] = tested on: CaSki cells; experiment: Cell cycle analysis by propidium iodide flow cytometry, EX527 and doxorubicin; type: cell-based; conditions: DX 0.5 μM 16 h
Procedure: (§1) For this purpose, HeLa and CaSki cells were treated with EX527 (80 μM) for 24 h, or with an equal volume of DMSO solvent and after this period elapsed, they were treated with DX (1.5 μM for HeLa, 0.5 μM for CaSki) for a further 16 h. After this incubation period at 37° C., the cells were labelled with propidium iodide (IP). Propidium iodide (3,8-diamino-5-diethylmethyl aminopropyl-6-phenylphenanthridine diiodide) (IP) is a synthetic dye characterised by low fluorescence (red-orange), capable of selectively binding to nucleic acids. It is known that the DNA content varies according to the phase of the cycle in which a cell is found. In particular, the G2 phase and mitosis (M) have twice as much DNA as the G1 phase, while during the DNA synthesis phase (S phase), the cell has an intermediate amount of DNA between the content in G1 and G2. Since the apoptotic cells, once resuspended in an appropriate buffer, release small DNA fragments, a reduction in IP fluorescence (related to the decrease in DNA content) can be observed in them. […] The cytofluorimetric analysis was performed on the FACSCalibur flow cytometer instrument (BD Biosciences) (excitation at 488 nm and emission 400 nm) and the results were analysed with the FlowJo programme.

[2] = tested on: HeLa cells; experiment: as above; type: cell-based; conditions: DX 1.5 μM 16 h
Procedure: as §1

[3] = tested on: CaSki cells; experiment: MTT cell viability, EX527 and doxorubicin; type: cell-based; conditions: DX 0.5 μM for 16, 40, 64 h
Procedure: (§2) The observations described above prompted an analysis of whether HPV-positive cells in which SIRT1 is inhibited with consequent reduced expression of E6 and E7 and restoration of p53, could be more sensitive to the treatment with genotoxic drugs, such as doxorubicin (DX, SIGMA ALDRICH). Firstly, cell viability was determined following treatment with EX527 in combination with doxorubicin against HeLa and CaSki cells, using the MTT (3-(4,5-dimethylthiazol-2-yl)-2,5-diphenyltetrazolium bromide; SIGMA-ALDRICH) colorimetric assay. To this purpose, the cells were exposed to a concentration of EX527 of 80 μM or equal volume of solvent, dimethyl sulfoxide (DMSO, SIGMA ALDRICH) for 24 h, after this period elapsed the cells were treated with DX (1.5 μM for HeLa, 0.5 μM for CaSki) for a further 16, 40, 64 h. Subsequently, the supernatant was removed, the well was washed with PBS1× (SIGMA-ALDRICH) and incubated for 2 hours at 37° C. and 5% of CO2 with DMEM medium supplemented with 500 μg/mL MTT solution. […] On these solubilised cells, absorbance was measured at a wavelength of 570 nm, using the Victor3 multiplate reader spectrophotometer (Perkin Elmer). The absorbance value obtained from the sample treated with the carrier alone at the maximum dose was considered equal to 100% viability and the other values were related thereto.

[4] = tested on: HeLa cells; experiment: MTT cell viability, EX527 and doxorubicin; type: cell-based; conditions: DX 1.5 μM for 16, 40, 64 h
Procedure: as §2

[5] = tested on: NOKE6E7 cells; experiment: Annexin V-FITC/IP apoptosis assay, EX527 and doxorubicin; type: cell-based, human; conditions: DX 1.5 μM 24 h, FIG. 6
Procedure: (§3) For this purpose, HeLa, CaSki, and NOKE6E7 cells were treated with EX527 (80 μM) for 24 h, or with an equal volume of DMSO solvent and after this period elapsed, they were treated with DX (1.5 μM for HeLa and NOKE6E7, 0.5 μM for CaSki) for a further 24 h. After this incubation period at 37° C., the cells were processed using the “Annexin V-FITC Apoptosis Detection Kit” (BioLegend), a technique that allows the presence of apoptotic and necrotic cells to be detected by cytofluorimetric analysis. This assay exploits the ability of the annexin protein to bind to phosphatidylserine (PS) and thus give fluorescence in green thanks to the conjugated fluorophore (FITC, fluorescein isothiocyanate). PS is a phospholipid normally found on the inner side of the cell membrane. During apoptosis processes, on the other hand, PS is exposed to the outside and allows annexin V to bind to it. […] Subsequently, 400 μl of Annexin V Binding Buffer were added to each tube and the cells were analysed on the FACSCalibur flow cytometer instrument (BD Biosciences) (excitation at 488 nm, emission 518 nm and 400 nm for FITC and IP respectively). The results were then analysed with the FlowJo programme.

[6] = tested on: CaSki cells; experiment: as above; type: cell-based; conditions: DX 0.5 μM 24 h, FIG. 6
Procedure: as §3

[7] = tested on: HeLa cells; experiment: as above; type: cell-based; conditions: DX 1.5 μM 24 h, FIG. 6
Procedure: as §3

[8] = tested on: CaSki cells; experiment: Western blot of E6 and E7 with proteosome inhibitor MG132; type: cell-based; conditions: DMSO then MG132 30 μM 8 h, vs DMSO control
Procedure: (§4) In order to determine whether the inhibition of E6 or E7 proteins was due to a transcriptional or post-translational modification, HeLa or CaSki cells, pre-treated for 48 h with EX527 at a concentration of 80 μM or equal volume of solvent, dimethyl sulfoxide (DMSO, SIGMA ALDRICH), were incubated with a proteosome inhibitor, MG132 (SIGMA ALDRICH) for 8 h at a concentration of 30 μM. After this incubation period at 37° C., the expression levels of viral E6 and E7 proteins were tested. The α-tubulin protein was included as an internal loading control. The cells were lysed with RIPA buffer (50 mM Tris-HCl pH 7.4; 150 mM NaCl; 1 mM EDTA; 1% Nonidet P-40; 0.1% SDS; 0.5% deoxycholate; protease inhibitors) for 30 min on ice. The samples were subsequently centrifuged for 10 minutes at 13000 rpm at 4° C. to remove cellular debris and then the proteins were quantified using the Bradford method (BIO-RAD). 30 μg of protein extract were taken, to which the appropriate amount of Laemmli sample buffer (50 mM Tris-HCl pH 6.8, 2% SDS, 10% glycerol, 2% β-mercaptoethanol) was added. The thus obtained solution was heated to 95° C. for 5 minutes and separated by polyacrylamide (12%)-SDS page gel electrophoresis. […]

[9] = tested on: HeLa cells; experiment: as above; type: cell-based; conditions: DMSO then MG132 30 μM 8 h, vs DMSO control
Procedure: as §4

| Compound | cell death (sub-G0/G1 phase), DX [1] | cell death (sub-G0/G1 phase), DX [2] | mortality rate (MTT), DX alone [3] | mortality rate (MTT), DX alone [4] | percentage of apoptotic cells, DX [5] | percentage of apoptotic cells, DX [6] | percentage of apoptotic cells, DX [7] | expression of E6 and E7 after DMSO plus MG132 [8] | expression of E6 and E7 after DMSO plus MG132 [9] |
| --- | --- | --- | --- | --- | --- | --- | --- | --- | --- |
| COc1cccc2c1C(=O)c1c(O)c3c(c(O)c1C2=O)C[C@@](O)(C(=O)CO)C[C@@H]3O[C@H]1C[C@H](N)[C@H](O)[C@H](C)O1 [DX, doxorubicin] | increase in cell death (sub-G0/G1 phase) | increase in cell death (sub-G0/G1 phase) | mortality rate increases more | mortality rate increases more | increase in the percentage of apoptotic cells | increase in the percentage of apoptotic cells | increase in the percentage of apoptotic cells |  |  |
| CC(C)C[C@@H](C=O)NC(=O)[C@H](CC(C)C)NC(=O)[C@H](CC(C)C)NC(=O)OCc1ccccc1 [MG132] (Cbz-Leu-Leu-Leu-aldehyde) |  |  |  |  |  |  |  | recovery in the expression of the tested proteins | recovery in the expression of the tested proteins |
